From the NIST ThermoML archive (doi:10.1016/j.jct.2014.07.022)

Experiment: xn = mol fraction of the nth substance listed
Details: Gas, Spherical resonator

[C-]#[O+] [carbon monoxide] + N#N
Details | speed of sound [m/s]
273.04 K, 5000 kPa, x1 = 0.04999 | 345.57
273.04 K, 7995 kPa, x1 = 0.04999 | 354.43
273.05 K, 99 kPa, x1 = 0.04999 | 336.94
273.05 K, 995 kPa, x1 = 0.04999 | 337.99
273.05 K, 2997 kPa, x1 = 0.04999 | 341.18
273.05 K, 3989 kPa, x1 = 0.04999 | 343.2
273.05 K, 5997 kPa, x1 = 0.04999 | 348.21
273.05 K, 6998 kPa, x1 = 0.04999 | 351.18
273.11 K, 1992 kPa, x1 = 0.04999 | 339.44
273.16 K, 996 kPa, x1 = 0.1002 | 338.03
273.17 K, 1993 kPa, x1 = 0.1002 | 339.46
273.17 K, 2993 kPa, x1 = 0.1002 | 341.21
273.17 K, 4989 kPa, x1 = 0.1002 | 345.57
273.17 K, 6000 kPa, x1 = 0.1002 | 348.25
273.18 K, 3997 kPa, x1 = 0.1002 | 343.25
273.18 K, 6994 kPa, x1 = 0.1002 | 351.2
273.18 K, 8019 kPa, x1 = 0.1002 | 354.55
273.18 K, 8970 kPa, x1 = 0.1002 | 357.95
273.2 K, 9955 kPa, x1 = 0.1002 | 361.78
273.24 K, 9010 kPa, x1 = 0.04999 | 358.19
273.24 K, 9993 kPa, x1 = 0.04999 | 361.99
324.94 K, 117 kPa, x1 = 0.1002 | 367.62
324.94 K, 5998 kPa, x1 = 0.1002 | 381.69
324.94 K, 10006 kPa, x1 = 0.1002 | 394.85
324.95 K, 1001 kPa, x1 = 0.1002 | 369.33
324.95 K, 3002 kPa, x1 = 0.1002 | 373.73
324.95 K, 3998 kPa, x1 = 0.1002 | 376.19
324.95 K, 8963 kPa, x1 = 0.1002 | 391.17
324.96 K, 1989 kPa, x1 = 0.1002 | 371.42
324.96 K, 5002 kPa, x1 = 0.1002 | 378.87
324.96 K, 6999 kPa, x1 = 0.1002 | 384.73
324.96 K, 7996 kPa, x1 = 0.1002 | 387.92
324.99 K, 8000 kPa, x1 = 0.04999 | 387.94
325 K, 1002 kPa, x1 = 0.04999 | 369.31
325 K, 1991 kPa, x1 = 0.04999 | 371.4
325.01 K, 99 kPa, x1 = 0.04999 | 367.57
325.01 K, 3003 kPa, x1 = 0.04999 | 373.73
325.01 K, 4998 kPa, x1 = 0.04999 | 378.87
325.03 K, 3999 kPa, x1 = 0.04999 | 376.21
325.03 K, 5995 kPa, x1 = 0.04999 | 381.72
325.05 K, 9002 kPa, x1 = 0.04999 | 391.36
325.13 K, 10001 kPa, x1 = 0.04999 | 394.94
325.23 K, 7007 kPa, x1 = 0.04999 | 384.9
